# Experimental data reported in patent publication US20220409733A1, “COMPOSITIONS AND METHODS FOR TREATING CANCER” (priority 2019, published 2022).
# Like-named read-outs stand apart in the source and are kept apart here.
# Key:
# A2780 cells = test: CCK-8 assay of cDDP cytotoxicity in parental A2780 cells; format: cell-based; conditions: parental A2780 cell line, 1 h cDDP exposure
# Procedure: (§1) FIG. 1B: CCK-8 assay of A2780, A2780-CP and A2780-CP cells pre-incubated for 24 h with APP antisense oligonucleotides (A2780ONS) during a 1 h exposure to increasing concentrations of cDDP.
# A2780-CP cells = test: CCK-8 assay of cDDP cytotoxicity in Pt resistant A2780-CP cells; format: cell-based; conditions: 1 h cDDP exposure
# Procedure: as §1
# APP = APP (Homo sapiens, UniProt P05067); conditions: in vivo and in vitro; cited from earlier work
# Chain of APP (P05067 18-770): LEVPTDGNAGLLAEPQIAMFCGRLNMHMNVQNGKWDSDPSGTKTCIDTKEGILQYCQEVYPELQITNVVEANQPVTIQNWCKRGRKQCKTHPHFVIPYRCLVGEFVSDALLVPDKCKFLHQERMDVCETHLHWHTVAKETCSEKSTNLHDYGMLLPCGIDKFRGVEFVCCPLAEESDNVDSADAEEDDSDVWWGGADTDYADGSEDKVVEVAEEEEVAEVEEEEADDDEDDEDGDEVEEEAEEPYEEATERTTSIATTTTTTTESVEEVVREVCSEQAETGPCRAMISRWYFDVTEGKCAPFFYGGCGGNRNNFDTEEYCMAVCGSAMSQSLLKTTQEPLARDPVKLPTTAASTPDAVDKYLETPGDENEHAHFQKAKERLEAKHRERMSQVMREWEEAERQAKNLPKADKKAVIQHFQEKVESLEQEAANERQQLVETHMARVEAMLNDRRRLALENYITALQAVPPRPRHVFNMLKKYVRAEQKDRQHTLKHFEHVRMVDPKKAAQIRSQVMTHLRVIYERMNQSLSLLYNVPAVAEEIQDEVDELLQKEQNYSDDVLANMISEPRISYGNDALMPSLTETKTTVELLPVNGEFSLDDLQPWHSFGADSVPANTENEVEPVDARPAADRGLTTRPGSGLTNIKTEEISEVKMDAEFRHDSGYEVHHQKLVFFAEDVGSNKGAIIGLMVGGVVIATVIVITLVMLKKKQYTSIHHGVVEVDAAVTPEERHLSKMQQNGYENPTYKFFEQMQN
Compound,IC50 (A2780 cells) [µM],"IC50 (A2780-CP cells; A2780-CP cells pre-treated overnight with 25 μM APP ONS, read-out: IC50 of cDDP following APP downregulation) [µM]","IC50 (A2780-CP cells; A2780-CP cells, no APP downregulation, read-out: IC50 of cDDP) [µM]",Binding to APP (APP)
"[NH2][Pt]([NH2])([Cl])[Cl] [cDDP, Cisplatin]",10.2 ± 0.32,12.1 ± 0.3,63.2 ± 1.9,
-cdkc pagtyvsehc tntslrvcss cpvgtftr- (SEQ ID NO:1) [DR6 peptide],,,,high affinity
